{"source": "patent US8981111B2", "about": "(priority 2008, dated 2015)", "data": [{"experiment": "log P (HPLC/MS data of the preparation examples)", "conditions": "HCOOH", "values": [{"molecule": "N-(6-{[({(3-bromo-4-methoxyphenyl)[3-chloro-5-(trifluoromethyl)pyridin-2-yl]methylene}amino)oxy]methyl}pyridin-2-yl)-3-methylbutanamide [Example 444]", "log P(HCOOH)": 5.03}, {"molecule": "N-{2-[({[(1-methyl-1H-imidazol-2-yl)(phenyl)methylene]amino}-oxy)methyl]pyrimidin-4-yl}cyclopropanecarboxamide [Example 193]", "log P(HCOOH)": 1.50}, {"molecule": "pentyl{2-[({[(1-methyl-1H-imidazol-2-yl)(phenyl)methylene]amino}oxy)-methyl]pyrimidin-4-yl}carbamate [Example 61]", "log P(HCOOH)": 2.28}, {"molecule": "pentyl{2-[({[(1-methyl-1H-imidazol-5-yl)(phenyl)methylene]amino}oxy)-methyl]pyrimidin-4-yl}carbamate [Example 139]", "log P(HCOOH)": 2.66}]}, {"experiment": "log P (HPLC/MS data of the preparation examples)", "conditions": "HCOOH (formic acid)", "values": [{"molecule": "Cn1cncc1C(=NOCc1cccc(N)n1)c1ccsc1", "note": "[Example 493, 6-[({[(1-methyl-1H-imidazol-5-yl)(3-thienyl)methylene]amino}oxy)methyl]pyridin-2-amine]", "chromatographic logP": 0.39}, {"molecule": "Cn1cncc1C(=NOCc1cccc(N2C(=O)c3ccccc3C2=O)n1)c1cccs1", "note": "[Example 494, 2-{6-[({[(1-methyl-1H-imidazol-5-yl)(2-thienyl)methylene]amino}-oxy)methyl]pyridin-2-yl}-1H-isoindole-1,3(2H)-dione]", "chromatographic logP": 1.66}, {"molecule": "Cn1cncc1C(=NOCc1csc(N)n1)c1cccs1", "note": "[Example 495, 4-[({[(1-methyl-1H-imidazol-5-yl)(2-thienyl)methylene]amino}oxy)methyl]-1,3-thiazol-2-amine]", "chromatographic logP": 0.22}, {"molecule": "Cn1cncc1C(=NOCc1csc(N)n1)c1ccsc1", "note": "[Example 496, 4-[({[(1-methyl-1H-imidazol-5-yl)(3-thienyl)methylene]amino}oxy)methyl]-1,3-thiazol-2-amine]", "chromatographic logP": 0.45}, {"molecule": "Cn1ccnc1C(=NO)c1ccccc1", "note": "[N-hydroxy-1-(1-methyl-1H-imidazol-2-yl)-1-phenylmethanimine]", "chromatographic logP": 0.24}, {"molecule": "Cn1cncc1C(=NO)c1cccs1", "note": "[N-hydroxy-1-(1-methyl-1H-imidazol-5-yl)-1-(2-thienyl)methanimine]", "chromatographic logP": 0.45}, {"molecule": "Cn1cncc1C(=NO)c1ccsc1", "note": "[N-hydroxy-1-(1-methyl-1H-imidazol-5-yl)-1-(3-thienyl)methanimine]", "chromatographic logP": 0.21}, {"molecule": "Cn1cncc1C(=NO)c1ccccc1", "note": "[N-hydroxy-1-(1-methyl-1H-imidazol-5-yl)-1-phenylmethanimine]", "chromatographic logP": 0.41}, {"molecule": "Cc1nocc1C(=NO)c1cccs1", "note": "[N-hydroxy-1-(3-methyl-1,2-oxazol-4-yl)-1-(2-thienyl)methanimine]", "chromatographic logP": 1.75}, {"molecule": "CON(C)C(=O)c1cccs1", "note": "[N-methoxy-N-methylthiophene-2-carboxamide]", "chromatographic logP": 1.44}, {"molecule": "CON(C)C(=O)c1ccsc1", "note": "[N-methoxy-N-methylthiophene-3-carboxamide]", "chromatographic logP": 1.3}]}, {"experiment": "log P (HPLC/MS data of the preparation examples)", "conditions": "HPLC (LC-MS) method [b]: pH 2.7, 0.1% formic acid in water and acetonitrile, linear gradient 10% to 95% acetonitrile; EEC directive 79/831 Annex V.A8", "values": [{"molecule": "CCCCC(=O)Nc1cccc(CON=C(c2ccsc2)c2cncn2C)n1", "note": "[Example 440]", "log p": "1.75^[b]"}, {"molecule": "CCCCCCCCCC(=O)Nc1cccc(CON=C(c2ccsc2)c2cncn2C)n1", "note": "[Example 441]", "log p": "3.02^[b]"}, {"molecule": "CC(C)CC(=O)Nc1cccc(CON=C(c2ccsc2)c2cncn2C)n1", "note": "[Example 442]", "log p": "1.7^[b]"}, {"molecule": "Cn1cncc1C(=NOCc1cccc(NC(=O)C(C)(C)C)n1)c1cccs1", "note": "[Example 443]", "log p": "1.7^[b]"}, {"molecule": "CCCC(=O)Nc1cccc(CON=C(c2cccs2)c2cncn2C)n1", "note": "[Example 445]", "log p": "1.5^[b]"}, {"molecule": "CCCCCCCCCC(=O)Nc1cccc(CON=C(c2cccs2)c2cncn2C)n1", "note": "[Example 448]", "log p": "2.98^[b]"}, {"molecule": "Cn1cncc1C(=NOCc1csc(NC(=O)C(C)(C)C)n1)c1cccs1", "note": "[Example 449]", "log p": "1.67^[b]"}, {"molecule": "CC(C)CC(=O)Nc1nc(CON=C(c2cccs2)c2cncn2C)cs1", "note": "[Example 450]", "log p": "1.66^[b]"}, {"molecule": "CCCC(=O)Nc1nc(CON=C(c2cccs2)c2cncn2C)cs1", "note": "[Example 451]", "log p": "1.47^[b]"}, {"molecule": "CCCCCCC(=O)Nc1nc(CON=C(c2cccs2)c2cncn2C)cs1", "note": "[Example 452]", "log p": "2.14^[b]"}, {"molecule": "CCCCC(=O)Nc1nc(CON=C(c2cccs2)c2cncn2C)cs1", "note": "[Example 453]", "log p": "1.7^[b]"}, {"molecule": "CCCCCCCCCC(=O)Nc1nc(CON=C(c2cccs2)c2cncn2C)cs1", "note": "[Example 454]", "log p": "2.86^[b]"}, {"molecule": "CCC(C(=O)Nc1cccc(CON=C(c2cccs2)c2cncn2C)n1)c1ccccc1", "note": "(stereo not shown) [Example 455]", "log p": "2.2^[b]"}, {"molecule": "Cn1cccc1C(=NOCc1cccc(N2C(=O)c3ccccc3C2=O)n1)c1ccc(Cl)nc1", "note": "[Example 463]", "log p": "3.78^[b]"}, {"molecule": "Cn1cccc1C(=NOCc1cccc(N)n1)c1ccc(Cl)nc1", "note": "[Example 464]", "log p": "1.72^[b]"}, {"molecule": "Cn1ncnc1C(=NOCc1cccc(N2C(=O)c3ccccc3C2=O)n1)c1ncc(C(F)(F)F)cc1Cl", "note": "[Example 465]", "log p": "3.15^[b]"}, {"molecule": "Cn1ncnc1C(=NOCc1cccc(N)n1)c1ncc(C(F)(F)F)cc1Cl", "note": "[Example 466]", "log p": "1.3^[b]"}, {"molecule": "Cn1ncnc1C(=NOCc1cccc(NC(=O)Cc2ccccc2)n1)c1ncc(C(F)(F)F)cc1Cl", "note": "[Example 467]", "log p": "3.46^[b]"}, {"molecule": "CCCCCC(=O)Nc1cccc(CON=C(c2ncc(C(F)(F)F)cc2Cl)c2ncnn2C)n1", "note": "[Example 468]", "log p": "3.85^[b]"}, {"molecule": "CCCCCOC(=O)Nc1cccc(CON=C(c2ncc(C(F)(F)F)cc2Cl)c2ncnn2C)n1", "note": "[Example 469]", "log p": "4.41^[b]"}, {"molecule": "Cn1ncnc1C(=NOCc1cccc(NC(=O)C(C)(C)C)n1)c1ncc(C(F)(F)F)cc1Cl", "note": "[Example 470]", "log p": "3.44^[b]"}, {"molecule": "Cn1ncnc1C(=NOCc1cccc(NC(=O)CCc2ccccc2)n1)c1ncc(C(F)(F)F)cc1Cl", "note": "[Example 471]", "log p": "3.73^[b]"}, {"molecule": "Cn1ncnc1C(=NOCc1nccc(N)n1)c1ncc(C(F)(F)F)cc1Cl", "note": "[Example 472]", "log p": "1.2^[b]"}, {"molecule": "Cn1ncnc1C(=NOCc1csc(N)n1)c1ncc(C(F)(F)F)cc1Cl", "note": "[Example 473]", "log p": "1.56^[b]"}, {"molecule": "CCCCCC(=O)Nc1ccnc(CON=C(c2ncc(C(F)(F)F)cc2Cl)c2ncnn2C)n1", "note": "[Example 474]", "log p": "3.51^[b]"}, {"molecule": "CCCCCOC(=O)Nc1ccnc(CON=C(c2ncc(C(F)(F)F)cc2Cl)c2ncnn2C)n1", "note": "[Example 475]", "log p": "3.8^[b]"}, {"molecule": "Cn1ncnc1C(=NOCc1nccc(NC(=O)Cc2ccccc2)n1)c1ncc(C(F)(F)F)cc1Cl", "note": "[Example 476]", "log p": "3.13^[b]"}, {"molecule": "Cn1ncnc1C(=NOCc1nccc(NC(=O)CCc2ccccc2)n1)c1ncc(C(F)(F)F)cc1Cl", "note": "[Example 477]", "log p": "3.39^[b]"}, {"molecule": "CC(C)CC(=O)Nc1ccnc(CON=C(c2ncc(C(F)(F)F)cc2Cl)c2ncnn2C)n1", "note": "[Example 478]", "log p": "3.06^[b]"}, {"molecule": "CCCCCC(=O)Nc1nc(CON=C(c2ncc(C(F)(F)F)cc2Cl)c2ncnn2C)cs1", "note": "[Example 479]", "log p": "3.6^[b]"}, {"molecule": "CCCCCOC(=O)Nc1nc(CON=C(c2ncc(C(F)(F)F)cc2Cl)c2ncnn2C)cs1", "note": "[Example 480]", "log p": "3.94^[b]"}, {"molecule": "Cn1ncnc1C(=NOCc1csc(NC(=O)C(C)(C)C)n1)c1ncc(C(F)(F)F)cc1Cl", "note": "[Example 481]", "log p": "3.27^[b]"}, {"molecule": "Cn1ncnc1C(=NOCc1csc(NC(=O)Cc2ccccc2)n1)c1ncc(C(F)(F)F)cc1Cl", "note": "[Example 482]", "log p": "3.27^[b]"}, {"molecule": "Cn1ncnc1C(=NOCc1csc(NC(=O)CCc2ccccc2)n1)c1ncc(C(F)(F)F)cc1Cl", "note": "[Example 483]", "log p": "3.51^[b]"}, {"molecule": "CC(C)CC(=O)Nc1nc(CON=C(c2ncc(C(F)(F)F)cc2Cl)c2ncnn2C)cs1", "note": "[Example 484]", "log p": "3.19^[b]"}, {"molecule": "Cc1cccnc1C(=NOCc1csc(N)n1)c1cc(C(F)(F)F)ccn1", "note": "[Example 486]", "log p": "1.57^[b]"}, {"molecule": "Cc1cccnc1C(=NOCc1csc(NC(=O)C(C)(C)C)n1)c1cc(C(F)(F)F)ccn1", "note": "[Example 487]", "log p": "3.44^[b]"}, {"molecule": "Cc1cccnc1C(=NOCc1csc(NC(=O)CC(C)C)n1)c1cc(C(F)(F)F)ccn1", "note": "[Example 488]", "log p": "3.31^[b]"}, {"molecule": "CCCCCOC(=O)Nc1nc(CON=C(c2cc(C(F)(F)F)ccn2)c2ncccc2C)cs1", "note": "[Example 489]", "log p": "4.13^[b]"}, {"molecule": "CCCCCC(=O)Nc1nc(CON=C(c2cc(C(F)(F)F)ccn2)c2ncccc2C)cs1", "note": "[Example 490]", "log p": "3.76^[b]"}, {"molecule": "N-(6-{[({(3-bromo-4-methoxyphenyl)[3-chloro-5-(trifluoromethyl)pyridin-2-yl]methylene}amino)oxy]methyl}pyridin-2-yl)-3-methylbutanamide [Example 444]", "log p": "1.69^[b]"}]}, {"experiment": "log P (HPLC/MS data of the preparation examples)", "conditions": "HPLC method [a]: pH 2.3, 0.1% phosphoric acid and acetonitrile as eluent; EEC directive 79/831 Annex V.A8", "values": [{"molecule": "COC(=O)c1ccc(C(F)(F)F)nc1CON=C(c1ccccn1)c1ccccn1", "note": "[Example 485]", "log p": "2.48^[a]"}]}, {"experiment": "log P (HPLC/MS data of the preparation examples)", "conditions": "LC-MS, method [b]: pH 2.7 with 0.1% formic acid in water and acetonitrile, linear gradient 10% to 95% acetonitrile", "values": [{"molecule": "N-(cyclopropylcarbonyl)-N-(2-{[({[2-(cyclopropylcarbonyl)-1-methyl-1H-imidazol-5-yl](phenyl)methylene}amino)oxy]methyl}pyrimidin-4-yl)cyclopropanecarboxamide [Example 312]", "log p": "2.22^[b]"}, {"molecule": "pentyl{2-[({[(1-methyl-1H-imidazol-2-yl)(phenyl)methylene]amino}oxy)-methyl]pyrimidin-4-yl}carbamate [Example 61]", "log p": "1.92^[b]"}]}, {"experiment": "log P (HPLC/MS data of the preparation examples)", "conditions": "method [b]: LC-MS at pH 2.7, 0.1% formic acid in water / acetonitrile, linear gradient 10% to 95% acetonitrile", "values": [{"molecule": "N-{2-[({[(1-methyl-1H-imidazol-2-yl)(phenyl)methylene]amino}-oxy)methyl]pyrimidin-4-yl}cyclopropanecarboxamide [Example 193]", "log p": "1.54^[b]"}, {"molecule": "pentyl{2-[({[(1-methyl-1H-imidazol-5-yl)(phenyl)methylene]amino}oxy)-methyl]pyrimidin-4-yl}carbamate [Example 139]", "log p": "3.19^[b]"}]}]}
